Measurements as given in patent publication US20220233492A1, “METHOD OF PREVENTING OR TREATING POSTOPERATIVE PAIN” (priority 2019, published 2022).
“Also recorded” adds a separate entry of the source.

What was measured:
[1] = tested on: postoperative pain, subjects for an elective bunionectomy; assay: Example 3: IV infusion after nerve block removal vs placebo, elective bunionectomy; type: in vivo, human
Description: The primary-outcome measure, pain intensity, was evaluated using NRS (0-10) at the scheduled time points through 48 hours post-emergence. […] Subjects were given 2 stopwatches to start at the time of the start of the study drug infusion (T=0) and were instructed to stop the first stopwatch when “perceptible pain relief”, and the second stopwatch when “meaningful pain relief” is felt by the Time 12 hr.

[2] = tested on: postoperative pain, subjects underwent laparoscopic colorectal surgery; assay: Example 1: postoperative IV infusion vs placebo after laparoscopic colorectal surgery; type: in vivo, human
Description: Subjects who reported a pain intensity score of at least 4 on the NRS (0-10) after regaining consciousness in the post-anesthesia care unit (PACU) were enrolled in the study. The VVZ-149 group received an 8-hours IV infusion at a loading dose of 1.8 mg/kg for 0.5 h followed by a maintenance dose of 1.3 mg/kg/h for 7.5 h, and the placebo group received a placebo with the same dosing regimen. […] The primary-outcome measure, pain intensity, was evaluated using NRS (0-10) at the scheduled time points through 24 hours post-emergence. […] In rescued patients, anxiety was also highly correlated with both depression (r=0.285, p=0.041) and PCS score (r=0.334, p=0.016).

[3] = tested on: postoperative pain, subjects for an open elective abdominoplasty; assay: Example 2: IV infusion started before anesthesia induction vs placebo, open elective abdominoplasty; type: in vivo, human
[4] = tested on: healthy human subjects or subjects undergoing major surgeries; assay: safety in healthy human subjects or subjects undergoing major surgeries; type: in vivo
[5] = tested on: postoperative pain, subjects underwent laparoscopic or robotic-assisted gastrectomy; assay: Example 4: intraoperative start IV infusion vs placebo, laparoscopic or robotic-assisted gastrectomy; type: in vivo, human; settings: for reduction of total amount of opioid consumed vs placebo: p<0.05
[6] = double-blinded, randomized preclinical studies with PK/PD correlation analyses; type: in vivo

CCCCOc1c(OC)cc(C(=O)NCC2(N(C)C)CCOCC2)cc1OC [VVZ-149, 4-butoxy-N-((4-(dimethylamino)tetrahydro-2H-pyran-4-yl)methyl)-3,5-dimethoxybenzamide]
pain intensity (NRS 0-10) vs placebo ([1]; 10-hours IV infusion 160 mg 0.5 h + 840 mg 9.5 h after nerve block removal, FIG. 16a): lower pain intensity | opioid consumption vs placebo ([1]; IV morphine rescue, all patients): less opioid consumption | morphine requested and consumed vs placebo subgroup ([1]; subgroup predose PI≥7, FIG. 17a, 17b): significant less morphine was requested and consumed | pain intensity vs placebo subgroup ([1]; subgroup with severe postoperative pain, predose PI≥7, FIG. 16b): significant lower pain intensity | patients reporting perceptible pain relief ([1]; within 30 minutes after the start of infusion, FIG. 18): More than 50% | pain intensity (NRS 0-10) vs placebo ([2]; 8-hours IV infusion 1.8 mg/kg 0.5 h + 1.3 mg/kg/h […], through 24 hours post-emergence, FIG. 1): lower pain intensity | opioid consumption (hydromorphone via PCA and rescue) vs placebo ([2]; all patients, FIG. 2): significant less opioid consumption | number of PCA demands vs placebo ([2]; hydromorphone PCA, FIG. 3 and FIG. 4): significantly reduced the patients' need for postoperative analgesia; also recorded: significantly lower | pain intensity vs placebo subgroup ([2]; subgroup of rescued patients (rescue hydromorphone in first 2 hours post-emergence), FIG. 7): reduced pain intensity | decrease in hydromorphone use compared to placebo ([2]; subgroup of rescued patients, FIG. 7): 40% | pain intensity vs placebo subgroup ([2]; subgroup with severe postoperative pain (predose PI 7), FIG. 5a): significant lower pain intensity | hydromorphone (via PCA and/or rescue) requested and consumed vs placebo subgroup ([2]; subgroup with severe postoperative pain (predose PI 7), FIG. 5b): less hydromorphone (via PCA and/or rescue) was requested and consumed | total amount of rescue opioid consumed vs placebo ([3]; 0-6, 0-12, 0-24 hours, FIG. 9): significant lower | reduction of postoperative pain ([3]; 10-hours IV infusion 160 mg 0.5 h + 840 mg 9.5 h, starting approx. 30 minutes before induction of anesthesia): opioid comparable reduction of postoperative pain | number of requests for rescue opioid vs placebo ([3]; IV morphine rescue, 0-24 hours, FIG. 8): significant lower | proportion of opioid-free subjects vs placebo ([3]; during the first 12 hours post-emergence, FIG. 10): higher proportion of subjects that are opioid-free | clinically significant adverse events (AEs) [4]: No clinically significant adverse events | mean NRS rest vs placebo ([5]; 10 h IV infusion 1.8 mg/kg 0.5 h + 1.3 mg/kg/hr 9.5 h, significance at T=4 (p<0.05), FIG. 12): lower at any given timepoint through 24 hrs post-emergence except at T=24 | opioid sparing (opioid consumed vs placebo) ([5]; for 10 hours post-emergence, p<0.01, FIG. 14): 31.8% | number of PCA demand vs placebo ([5]; in vivo): significantly lessened at T=2 and T=10 | reduction of total amount of opioid consumed vs placebo ([5]; rescued patient group, 0-10 hr post-emergence): 31.4% | reduction of total amount of opioid consumed vs placebo ([5]; rescued patient group, 10-24 hr post-emergence): 35% | pain intensity (PIs) vs placebo ([5]; rescued patient group, significance at 4 hr (p<0.01) and 10 hr post-emergence (p<0.05), FIG. 15b): much lower | pain relief [6]: dose-dependent pain relief | sedative or adverse effects [6]: without significant sedative or adverse effects | anti-allodynic effect ([6]; versus morphine or gabapentin): comparable to morphine or gabapentin
